Test results taken from patent publication US8318757B2, “Substituted isoxazoline compound and pest control agent” (Nissan Chemical Industries, Ltd., priority 2007, dated 2012).

Columns and labels:
Assay type in all cases: in vivo
[1] = test system: Plutella xylostella; experiment: whole plant or invertebrate; conditions: in Brassica oleracea, 144 h
Experimental: (§1) A 10% emulsifiable concentrate of the compound of the present invention (depending on the type of the compound, a 10% wettable powder was subjected to the test) was diluted with water containing a spreader to prepare a drug solution in a concentration of 10 ppm. In this drug solution, a leaf of cabbage was immersed for about 10 seconds and was air-dried and then put into a petri dish. In the petri dish, five 2 instar larvae of Plutella xylostella per petri dish were released and the petri dish was capped and stored in a thermostatic room of 25° C. The number of killed larvae after 6 days was measured and the mortality was calculated from the following calculation formula: Mortality (%)=(number of killed insect/number of released insect)×100. Here, the test was carried out on the duplicate samples.

[2] = test system: Spodoptera litura; experiment: whole plant or invertebrate; conditions: in Brassica oleracea, 144 h
Experimental: as §1, with “Spodoptera litura” for “Plutella xylostella”, “same” for “following”, “formula as that in Test Example 1.” for “formula: Mortality (%)=(number of killed insect/number of released insect)×100.”

[3] = test system: Spodoptera exigua; experiment: Mortality Test for Spodoptera exigua; conditions: in Brassica oleracea, 144 h
Experimental: as §1, with “of 100” for “of 10”, “of Spodoptera exigua” for “of Plutella xylostella”, “the same” for “the following”, “calculation formula as that in Test Example 1.” for “calculation formula: Mortality (%)=(number of killed insect/number of released insect)×100.”

[4] = test system: Homona magnanima; experiment: Mortality Test for Homona magnanima; conditions: in Brassica oleracea, 144 h
Experimental: as §1, with “of 100” for “of 10”, “of Homona magnanima” for “of Plutella xylostella”, “the same” for “the following”, “calculation formula as that in Test Example 1.” for “calculation formula: Mortality (%)=(number of killed insect/number of released insect)×100.”

[5] = test system: Frankliniella occidentalis; experiment: whole plant or invertebrate; conditions: in Phaseolus vulgaris, 48 h
Experimental: (§2) In a styrol cup having an inner diameter of 7 cm, a wet filtration paper was laid and on the paper, a leaf of kidney bean cut out so as to have the same diameter as the inner diameter of the cup was laid, followed by inoculating ten 1 instar larvae of Frankliniella occidentalis per leaf with the leaf. A 10% emulsifiable concentrate of the compound of the present invention (depending on the type of the compound, a 10% wettable powder was subjected to the test) was diluted with water containing a spreader to prepare a drug solution in a concentration of 500 ppm. The drug solution was sprayed using a rotary spray tower in an amount of 2.5 mL per styrol cup, and the cup was capped and stored in a thermostatic room of 25° C. The number of killed larvae after 2 days was measured and the mortality was calculated from the same calculation formula as that in Test Example 1. Here, the test was carried out on the duplicate samples.

[6] = test system: Nilaparvata lugens; experiment: whole plant or invertebrate; conditions: in Oryza sativa, 144 h
Experimental: (§3) A 10% emulsifiable concentrate of the compound of the present invention (depending on the type of the compound, a 10% wettable powder was subjected to the test) was diluted with water containing a spreader to prepare a drug solution in a concentration of 500 ppm. In this drug solution, a leaf sheath of rice was immersed for about 10 seconds and was air-dried and then put into a test tube. In the test tube, five 2 instar larvae of Nilaparvata lugens per test tube were released and the test tube was capped with a sponge and stored in a thermostatic room of 25° C. The number of killed larvae after 6 days was measured and the mortality was calculated from the same calculation formula as that in Test Example 1. Here, the test was carried out on the duplicate samples.

[7] = test system: Myzus persicae; experiment: whole plant or invertebrate; conditions: in Brassica oleracea, 144 h
Experimental: In a glass petri dish having an inner diameter of 3 cm, a wet absorbent cotton was laid and on the cotton, a leaf of cabbage cut out so as to have the same diameter as the inner diameter of the petri dish was laid, followed by releasing four apterous imagines of Myzus persicae on the leaf. After one day, a 10% emulsifiable concentrate of the compound of the present invention (depending on the type of the compound, a 10% wettable powder was subjected to the test) was diluted with water containing a spreader to prepare a drug solution in a concentration of 500 ppm. The drug solution was sprayed using a rotary spray tower (2.5 mg/cm^2), and the petri dish was capped and stored in a thermostatic room of 25° C. The number of killed imagines after 6 days was measured and the mortality was calculated from the same calculation formula as that in Test Example 1. Here, the test was carried out on the duplicate samples.

[8] = test system: Tetranychus urticae; experiment: whole plant or invertebrate; conditions: in Phaseolus vulgaris, 144 h
Experimental: as §2, with “ten” for “ten 1 instar”, “of Tetranychus urticae” for “of Frankliniella occidentalis”, “after 6” for “after 2”

[9] = test system: Liriomyza trifolii; experiment: whole plant or invertebrate; conditions: in Phaseolus vulgaris, 144 h
Experimental: as §3, with “leaf” for “leaf sheath”, “kidney bean which was cut out to a diameter of 7 cm, on which Liriomyza trifolii laid eggs (10 eggs/leaf)” for “rice”, “laid on” for “put into”, “wet filtration paper laid in a styrol cup having an inner diameter” for “test tube. In the test tube, five 2 instar larvae”, “7 cm. The styrol cup” for “Nilaparvata lugens per test tube were released and the test tube”, “capped” for “capped with a sponge”

[10] = test system: Helicoverpa armigera; experiment: Mortality Test for Helicoverpa armigera (Comparative Test); conditions: in Brassica oleracea, 144 h
Experimental: 10% emulsifiable concentrates of the compound of the present invention and a comparative compound were diluted with water containing a spreader to prepare drug solutions in a predetermined concentration. In each of the drug solutions, a leaf of cabbage was immersed for about 10 seconds and was air-dried and put into a petri dish. In the petri dish, seven 3 instar larvae of Helicoverpa armigera per petri dish were released and the petri dish was capped with a lid having a pore and stored in a thermostat room of 25° C. After 2 days of the treatment, an artificial fertilizer (1 cm^3) was added into the petri dish. The number of killed larvae after 6 days was measured and the mortality was calculated from the calculation formula: Mortality (%)=(number of killed insect/number of released insect)×100. Here, the test was carried out on the duplicate samples.

Q: With `CSCC(=O)NC(C)c1ccc(C2=NOC(c3cc(C(F)(F)F)cc(C(F)(F)F)c3)(C(F)(F)F)C2)cc1` (stereo not drawn) [1-001, N-[1-[4-[5-[3,5-bis(trifluoromethyl)phenyl]-5-trifluoromethyl-4,5-dihydroisoxazole-3-yl]phenyl]ethyl]-2-(methylthio)acetamide] as the compound, how does the mortality at 10 ppm [1] read?
A: Its mortality at 10 ppm is at least 80%.

Q: And the mortality at 10 ppm [2]?
A: The mortality at 10 ppm was at least 80%.

Q: And the mortality at 100 ppm [3]?
A: Its mortality at 100 ppm is at least 80%.

Q: What about the mortality at 100 ppm [4] of the same compound?
A: Its mortality at 100 ppm is at least 80%.

Q: What about the mortality at 500 ppm [5] of the same compound?
A: The mortality at 500 ppm was at least 80%.

Q: And the mortality at 500 ppm [6]?
A: The mortality at 500 ppm was at least 80%.

Q: What about the mortality at 500 ppm [7] of the same compound?
A: The mortality at 500 ppm was at least 80%.

Q: What about the mortality at 500 ppm [8] of the same compound?
A: Its mortality at 500 ppm is at least 80%.

Q: Which mortality at 10 ppm [1] does the source give for `O=C(CSCC(F)(F)F)NCc1ccc(C2=NOC(c3cc(Cl)c(Cl)c(Cl)c3)(C(F)(F)F)C2)cc1Cl` (stereo not drawn) [1-029, N-[2-chloro-4-[5-(3,4,5-trichlorophenyl)-5-trifluoromethyl-4,5-dihydroisoxazole-3-yl]phenyl]methyl-2-(2,2,2-trifluoroethylthio)acetamide] here?
A: Its mortality at 10 ppm is at least 80%.

Q: What about the mortality at 10 ppm [2] of the same compound?
A: Its mortality at 10 ppm is at least 80%.

Q: And the mortality at 100 ppm [4]?
A: The mortality at 100 ppm was at least 80%.

Q: And the mortality at 500 ppm [5]?
A: The mortality at 500 ppm was at least 80%.

Q: What about the mortality at 500 ppm [6] of the same compound?
A: The mortality at 500 ppm was at least 80%.

Q: And the mortality at 500 ppm [7]?
A: The mortality at 500 ppm was at least 80%.

Q: What about the mortality at 500 ppm [8] of the same compound?
A: Its mortality at 500 ppm is at least 80%.

Q: For `COCSCC(=O)NCc1ccc(C2=NOC(c3cc(Cl)c(Cl)c(Cl)c3)(C(F)(F)F)C2)cc1Cl` (stereo not drawn) [1-030, N-[2-chloro-4-[5-(3,4,5-trichlorophenyl)-5-trifluoromethyl-4,5-dihydroisoxazole-3-yl]phenyl]methyl-2-(methoxymethylthio)acetamide], which mortality at 100 ppm [1] is on record?
A: Its mortality at 100 ppm is at least 80%.

Q: And the mortality at 100 ppm [2]?
A: The mortality at 100 ppm was at least 80%.

Q: Which results are given for `CS(CC(=O)NCc1ccc(C2=NOC(c3cc(Cl)c(Cl)c(C(F)(F)F)c3)(C(F)(F)F)C2)cc1Br)=NC#N` (stereo not drawn) [1-103, N-[2-bromo-4-[5-[3,4-dichloro-5-(trifluoromethyl)phenyl]-5-trifluoromethyl-4,5-dihydroisoxazole-3-yl]phenyl]methyl-2-[N-(cyano)methylsulfinimidoyl]acetamide]?
A: mortality at 100 ppm [1]: ≥ 80%; mortality at 100 ppm [2]: ≥ 80%

Q: What does the source list for `CCS(=N)(=O)CC(=O)NCc1ccc(C2=NOC(c3cc(C(F)(F)F)cc(C(F)(F)F)c3)(C(F)(F)F)C2)cc1Cl` (stereo not drawn) [1-173, N-[2-chloro-4-[5-[3,5-bis(trifluoromethyl)phenyl]-5-trifluoromethyl-4,5-dihydroisoxazole-3-yl]phenyl]methyl-2-(ethylsulfonimidoyl)acetamide]?
A: mortality at 10 ppm [1]: ≥ 80%; mortality at 10 ppm [2]: ≥ 80%; mortality at 500 ppm [5]: ≥ 80%; mortality at 500 ppm [9]: ≥ 80%; mortality at 500 ppm [8]: ≥ 80%

Q: How did the mortality at 100 ppm [1] turn out when `C[S+]([O-])C(C(=O)NCc1ccc(C2=NOC(c3cc(C(F)(F)F)cc(C(F)(F)F)c3)(C(F)(F)F)C2)cc1Cl)[S+](C)[O-]` (stereo not drawn) [1-211, N-[4-[5-[3,5-bis(trifluoromethyl)phenyl]-5-trifluoromethyl-4,5-dihydroisoxazole-3-yl]-2-chlorophenyl]methyl-2,2-bis(methylsulfinyl)acetamide] was run?
A: The mortality at 100 ppm was at least 80%.

Q: And the mortality at 100 ppm [2]?
A: The mortality at 100 ppm was at least 80%.

Q: And the mortality at 500 ppm [9]?
A: The mortality at 500 ppm was at least 80%.

Q: What about the mortality at 100 ppm [8] of the same compound?
A: The mortality at 100 ppm was at least 80%.

Q: Which results are given for `CCSC(C(=O)NCc1ccc(C2=NOC(c3cc(C(F)(F)F)cc(C(F)(F)F)c3)(C(F)(F)F)C2)cc1Cl)[S+]([O-])CC` (stereo not drawn) [1-220, N-[4-[5-[3,5-bis(trifluoromethyl)phenyl]-5-trifluoromethyl-4,5-dihydroisoxazole-3-yl]-2-chlorophenyl]methyl-2-ethylsulfinyl-2-(ethylthio)acetamide]?
A: mortality at 100 ppm [1]: ≥ 80%; mortality at 100 ppm [2]: ≥ 80%; mortality at 100 ppm [4]: ≥ 80%; mortality at 100 ppm [7]: ≥ 80%; mortality at 500 ppm [9]: ≥ 80%; mortality at 100 ppm [8]: ≥ 80%

Q: Which mortality at 100 ppm [1] does the source give for `CCSC(C(=O)NCc1ccc(C2=NOC(c3cc(C(F)(F)F)cc(C(F)(F)F)c3)(C(F)(F)F)C2)cc1Cl)S(=O)(=O)CC` (stereo not drawn) [1-225, N-[4-[5-[3,5-bis(trifluoromethyl)phenyl]-5-trifluoromethyl-4,5-dihydroisoxazole-3-yl]-2-chlorophenyl]methyl-2-ethylsulfonyl-2-(ethylthio)acetamide] here?
A: Its mortality at 100 ppm is at least 80%.

Q: What about the mortality at 100 ppm [2] of the same compound?
A: Its mortality at 100 ppm is at least 80%.

Q: And the mortality at 500 ppm [7]?
A: Its mortality at 500 ppm is at least 80%.

Q: What about the mortality at 500 ppm [8] of the same compound?
A: The mortality at 500 ppm was at least 80%.

Q: `CSCC(=O)NCc1ccc(C2=NOC(c3cc(Cl)cc(Cl)c3)(C(F)(F)F)C2)cc1Cl` (stereo not drawn) [Comparative compound A] was tested. Which mortality at 1 ppm [10] did it give?
A: Its mortality at 1 ppm is 0%.

Q: And the mortality at 3 ppm [10]?
A: Its mortality at 3 ppm is 57.1%.

Q: What about the mortality at 10 ppm [10] of the same compound?
A: Its mortality at 10 ppm is 92.9%.

Q: What about the mortality at 33 ppm [10] of the same compound?
A: Its mortality at 33 ppm is 100%.
